Reference: article PMC4669722, “Antitumour potential of BPT: a dual inhibitor of cdk4 and tubulin polymerization” (Cell Death & Disease, 2015)

Columns and labels:
Cdk4-cyclin D1 = Cdk4-cyclin D1 (Homo sapiens, UniProt P11802); assay: In vitro kinase assay, Cdk4-cyclin D1 (in-house); type: biochemical; conditions: three independent experiments; read-out: IC50 (mean±S.D.), Cdk4-cyclin D1
Description: (§1) The in vitro kinase assays for testing against Cdk4-cyclin D1, Cdk2-cyclin A, Cdk1-cyclin B1 and Cdk9-cyclin T1 were performed in-house. The methodology and results have been reported previously.[20], [30], [31], [32], [45] The kinase profiling for 58 representative kinases was carrried out commercially at Millipore Bioscience Division, Livingston, UK.

Cdk2-cyclin A = Cdk2-cyclin A (Homo sapiens, UniProt P24941); assay: In vitro kinase assay, Cdk2-cyclin A (in-house); type: biochemical; conditions: three independent experiments; read-out: IC50 (mean±S.D.), Cdk2-cyclin A
Description: as §1

Cdk1-cyclin B1 = Cdk1-cyclin B1 (Homo sapiens, UniProt P06493); assay: In vitro kinase assay, Cdk1-cyclin B1 (in-house); type: biochemical; conditions: three independent experiments; read-out: IC50 (mean±S.D.), Cdk1-cyclin B1
Chain of Cdk1-cyclin B1 (P06493 whole entry): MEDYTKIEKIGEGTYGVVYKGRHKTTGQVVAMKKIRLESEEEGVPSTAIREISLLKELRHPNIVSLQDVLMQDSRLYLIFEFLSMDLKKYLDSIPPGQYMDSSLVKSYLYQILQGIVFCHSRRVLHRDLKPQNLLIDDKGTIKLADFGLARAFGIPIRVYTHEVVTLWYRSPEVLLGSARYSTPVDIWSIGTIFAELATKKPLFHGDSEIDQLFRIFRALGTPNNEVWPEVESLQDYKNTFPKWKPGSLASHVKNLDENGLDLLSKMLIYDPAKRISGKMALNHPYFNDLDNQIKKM
Chain of Cdk1-cyclin B1 (P14635 whole entry partner): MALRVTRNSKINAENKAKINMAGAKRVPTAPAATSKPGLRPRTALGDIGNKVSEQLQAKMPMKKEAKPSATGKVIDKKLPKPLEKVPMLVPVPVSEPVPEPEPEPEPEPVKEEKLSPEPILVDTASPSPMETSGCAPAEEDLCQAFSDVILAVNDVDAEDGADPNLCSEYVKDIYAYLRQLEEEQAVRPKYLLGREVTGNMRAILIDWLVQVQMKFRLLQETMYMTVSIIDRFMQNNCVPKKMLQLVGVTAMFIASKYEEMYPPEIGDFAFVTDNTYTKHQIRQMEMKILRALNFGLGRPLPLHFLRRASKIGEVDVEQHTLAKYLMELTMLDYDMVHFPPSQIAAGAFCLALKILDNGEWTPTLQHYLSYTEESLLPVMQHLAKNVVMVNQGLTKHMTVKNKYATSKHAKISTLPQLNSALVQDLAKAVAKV
Description: as §1

Cdk9-cyclin T1 = Cdk9-cyclin T1 (Homo sapiens, UniProt P50750); assay: In vitro kinase assay, Cdk9-cyclin T1 (in-house); type: biochemical; conditions: three independent experiments; read-out: IC50 (mean±S.D.), Cdk9-cyclin T1
Chain of Cdk9-cyclin T1 (P50750 whole entry): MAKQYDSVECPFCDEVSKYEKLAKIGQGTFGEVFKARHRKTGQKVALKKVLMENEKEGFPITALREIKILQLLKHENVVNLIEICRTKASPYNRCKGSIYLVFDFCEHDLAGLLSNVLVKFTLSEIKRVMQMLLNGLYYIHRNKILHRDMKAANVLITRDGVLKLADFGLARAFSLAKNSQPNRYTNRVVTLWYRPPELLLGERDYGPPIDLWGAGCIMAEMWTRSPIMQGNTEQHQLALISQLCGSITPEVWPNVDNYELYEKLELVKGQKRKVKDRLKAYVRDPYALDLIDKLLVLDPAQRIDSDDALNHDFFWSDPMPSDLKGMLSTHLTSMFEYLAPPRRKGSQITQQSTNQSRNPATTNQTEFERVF
Chain of Cdk9-cyclin T1 (O60563 whole entry partner): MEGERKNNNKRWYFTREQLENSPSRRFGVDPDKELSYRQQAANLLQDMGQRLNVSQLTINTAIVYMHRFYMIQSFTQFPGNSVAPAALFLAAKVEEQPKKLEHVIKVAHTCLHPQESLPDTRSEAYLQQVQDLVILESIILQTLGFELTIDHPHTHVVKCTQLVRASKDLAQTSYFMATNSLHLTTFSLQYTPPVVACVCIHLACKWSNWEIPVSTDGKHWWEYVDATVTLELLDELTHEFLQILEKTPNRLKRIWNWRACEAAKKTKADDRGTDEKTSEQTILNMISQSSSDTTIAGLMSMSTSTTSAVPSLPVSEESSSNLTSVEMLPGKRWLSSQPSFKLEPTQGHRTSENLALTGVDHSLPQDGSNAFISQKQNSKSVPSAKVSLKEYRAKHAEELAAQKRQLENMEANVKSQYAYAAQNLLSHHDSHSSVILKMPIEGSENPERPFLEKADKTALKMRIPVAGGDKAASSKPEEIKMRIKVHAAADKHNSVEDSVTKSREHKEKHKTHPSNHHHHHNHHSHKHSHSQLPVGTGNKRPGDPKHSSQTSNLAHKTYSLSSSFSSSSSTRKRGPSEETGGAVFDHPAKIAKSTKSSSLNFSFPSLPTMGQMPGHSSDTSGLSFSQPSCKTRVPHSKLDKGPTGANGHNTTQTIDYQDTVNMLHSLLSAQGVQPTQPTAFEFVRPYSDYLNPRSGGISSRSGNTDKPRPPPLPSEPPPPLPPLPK
Description: as §1

pBluescript plasmid DNA = assay: EtBr displacement assay; type: binding; conditions: 1.3 μM EtBr, pH 7.4
Description: The assays were performed in a 96-well plate with clear bottom (Costar, Washington, DC, USA). The assay involved the addition of 10 μl of 10 × concentrated stock solution of compounds (dissolved in DMSO and further diluted in EtBr displacement assay buffer) to 90 μl of reaction mixture containing 6 μg of purified pBlueScript DNA and 1.3 μM EtBr in EtBr displacement assay buffer with final pH 7.4. Equivalent amounts of DMSO were added to the vehicle controls. In addition to control samples (DNA+EtBr), test samples (DNA+EtBr+test compounds), blank 1 (EtBr only), blank 2 (DNA only), wells containing DNA and compound were also prepared to test any change in the background fluorescence readings. The reduction in relative fluorescence counts was monitored ([…]) and recorded after 1 min equilibration time. Fascaplysin and actinomycin D, which are known to intercalate d-s DNA, were used as standard compounds in assay. The mean control and test readings were corrected by subtracting blank readings. The percentage fluorescence in the test samples in reaction with control samples was calculated by using following formula: […]

[1] = test system: LS174T (colorectal carcinoma; p53+, pRb+); assay: Cell proliferation (MTT) assay, LS174T; type: cell-based; conditions: Homo sapiens, 48 h, read-out: IC50 cell growth inhibition, LS174T
Description: (§2) All 10 human cancer cell lines were maintained at 37 °C in 5% CO2 in RPMI-1640 medium, supplemented with 10% foetal calf serum and 100 μg/ml normocin. The 10 cancer cell lines used for screening were all obtained from ATCC (Manassas, VA, USA); they were the NSCLC (a form of cancer that is resistant to chemotherapy) lines: NCI-H460 (pRb^+, p53^+), A549 (pRb^+, p53^+), Calu-1 (pRb^+, p53-null), NCI-H1299 (pRb^+, p53-null), NCI-H358 (pRb-null, p53-null); the colon cancer line LS174T (pRb^+, p53^+); the prostate cancer line PC-3 (pRb^+, p53-null); the pancreatic cancer line MiaPaca (pRb^+, p53-mutant). The genotypes within brackets indicate the status of the tumour suppressor proteins pRb and p53. The mouse embryonic normal hepatic cell line (BNL CL2) and its SV40 large T-antigen-transformed counterpart cell line (BNL SV A.8) were also purchased from ATCC. The large T-antigen inactivates the tumour suppressor proteins p53 and pRb. The detailed procedure of cell proliferation (MTT) assay and IC50 determination was described previously.[32]

[2] = test system: PC-3 (prostate; p53 null, pRb+); assay: Cell proliferation (MTT) assay, PC-3; type: cell-based; conditions: Homo sapiens, 48 h, read-out: IC50 cell growth inhibition, PC-3
Description: as §2

[3] = test system: MiaPaCa (pancreatic; p53His273mut, pRb+); assay: Cell proliferation (MTT) assay, MiaPaCa; type: cell-based; conditions: Homo sapiens, MIA PaCa-2, 48 h, read-out: IC50 cell growth inhibition, MiaPaCa
Description: as §2

A549 (NSCLC; p53+, pRb+) = assay: Cell proliferation (MTT) assay, A549; type: cell-based; conditions: Homo sapiens, 48 h, read-out: IC50 cell growth inhibition, A549
Description: as §2

[4] = test system: Calu-1 (NSCLC; p53 null, pRb+); assay: Cell proliferation (MTT) assay, Calu-1; type: cell-based, human; conditions: Homo sapiens, Calu-1; 48 h, MTT; read-out: IC50 cell growth inhibition, Calu-1
Description: as §2

[5] = test system: NCI-H460 (NSCLC; p53+, pRb+); assay: Cell proliferation (MTT) assay, NCI-H460; type: cell-based; conditions: Homo sapiens, 48 h, read-out: IC50 cell growth inhibition, NCI-H460
Description: as §2

[6] = test system: NCI-H1299 (NSCLC; p53 null, pRb+); assay: Cell proliferation (MTT) assay, NCI-H1299; type: cell-based; conditions: Homo sapiens, 48 h, read-out: IC50 cell growth inhibition, NCI-H1299
Description: as §2

[7] = test system: NCI-H358 (NSCLC; p53 null, pRb null); assay: Cell proliferation (MTT) assay, NCI-H358; type: cell-based; conditions: Homo sapiens, 48 h, read-out: IC50 cell growth inhibition, NCI-H358
Description: as §2

[8] = test system: BNL CL2 (mouse normal hepatic cells); assay: Cell proliferation (MTT) assay, BNL CL2; type: cell-based; conditions: Mus musculus, BNL CL.2; 48 h, MTT; read-out: IC50 cell growth inhibition, BNL CL2
Description: as §2

[9] = test system: BNL SV A.8 (mouse hepatic; SV40-mediated transformed cells); assay: Cell proliferation (MTT) assay, BNL SV A.8; type: cell-based; conditions: Mus musculus; 48 h, MTT; read-out: IC50 cell growth inhibition, BNL SV A.8
Description: as §2

Calu-1 cells = test system: Calu-1 cells; set-up: method as in PMID 16493461; conditions: cited from earlier work
NCI-H358 cells = assay: Flow cytometric cell cycle analysis, synchronized NCI-H358; type: cell-based, human; conditions: NCI-H358, hydroxyurea 250 μM, 18 h
Description: The untreated (control) and treated (with test compounds) cells were harvested by trypsinization, washed once with PBS and then fixed in 70% chilled (−20 °C) ethanol for minimum 1 h. After the fixation step, cells were centrifuged for 5 min at 3000 × g at room temperature, and the pellet was suspended in PBS containing 50 μg/ml propidium iodide (Sigma-Aldrich, Dorset, UK; cat. no. P-4170) and 0.5 mg/ml DNase-free ribonuclease (Sigma-Aldrich; cat. no. R-5503). The cells were stained for 1 h in the dark at 4 °C. Cell cycle analysis was performed on the Beckman Coulter (Epics Altra) fluorescence-activated cell sorter (Beckman Coulter UK Ltd, Buckinghamshire, UK). To gate all the events that represent single cells, and not cell doublets or cell clumps, the following analyses were performed on the samples. Cytograms of propidium iodide fluorescence peak signal versus integrated fluorescence or the linear signal were plotted. All data points on the straight line were isolated in a single gate and the gated data was further used for plotting a histogram that represents a complete cell cycle. The total number of events was not allowed to exceed 200 events per s. Data acquisition was stopped after a minimum of 10 000 events had been collected.

Chain of Cdk4-cyclin D1 (P11802 whole entry): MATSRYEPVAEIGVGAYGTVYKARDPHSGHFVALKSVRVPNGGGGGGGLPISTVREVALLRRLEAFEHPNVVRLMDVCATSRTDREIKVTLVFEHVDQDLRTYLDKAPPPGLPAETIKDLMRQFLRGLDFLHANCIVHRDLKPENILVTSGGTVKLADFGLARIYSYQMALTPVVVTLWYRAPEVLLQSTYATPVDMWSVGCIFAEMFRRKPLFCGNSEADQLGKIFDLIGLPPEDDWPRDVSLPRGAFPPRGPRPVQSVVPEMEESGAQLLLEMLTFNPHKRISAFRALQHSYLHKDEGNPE
Chain of Cdk4-cyclin D1 (P24385 whole entry partner): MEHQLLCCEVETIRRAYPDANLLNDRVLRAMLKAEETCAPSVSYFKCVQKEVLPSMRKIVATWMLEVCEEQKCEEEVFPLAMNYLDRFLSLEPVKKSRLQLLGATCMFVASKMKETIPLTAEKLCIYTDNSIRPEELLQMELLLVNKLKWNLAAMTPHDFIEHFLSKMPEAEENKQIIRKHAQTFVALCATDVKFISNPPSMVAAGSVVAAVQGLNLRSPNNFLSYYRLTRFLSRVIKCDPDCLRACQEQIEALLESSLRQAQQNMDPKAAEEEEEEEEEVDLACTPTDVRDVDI

| IC50 (Cdk4-cyclin D1) [µM] | IC50 (Cdk2-cyclin A) [µM] | IC50 (Cdk1-cyclin B1) [µM] | IC50 (Cdk9-cyclin T1) [µM] | EtBr displacement from DNA (pBluescript plasmid DNA) | IC50 [1] [µM] | IC50 [2] [µM] | IC50 [3] [µM] | IC50 (A549 (NSCLC; p53+, pRb+)) [µM] | IC50 [4] [µM] | IC50 [5] [µM] | IC50 [6] [µM] | IC50 [7] [µM] | Structure (SMILES) | IC50 [8] [µM] | IC50 [9] [µM] | phase of cell cycle block in Calu-1 cells (Calu-1 cells) | cells in G0/G1 (NCI-H358 cells) [%] |
| --- | --- | --- | --- | --- | --- | --- | --- | --- | --- | --- | --- | --- | --- | --- | --- | --- | --- |
| 44 ± 3 | 720 ± 24 | > 500 | > 1000 | No EtBr displacement up to 100 μM | 29 | 32 | 29 | 31 | 54 | 22 | 30 | 25 | CC(C)(C)c1ccc(C(=O)N2CCc3c([nH]c4ccccc34)C2)cc1 [CA211] | 27 | 35 |  |  |
| 25 ± 5.5 | 861 ± 29 | > 500 | > 1000 | No EtBr displacement up to 100 μM | 33 | 42 | 43 | 46 | 92 | 29 | 35 | 28 | COc1ccccc1C(=O)N1CCc2c([nH]c3ccccc23)C1 [CA198] | 37 | 40 |  |  |
| 24.4 ± 4 | 766 ± 33 | > 500 | > 1000 | No EtBr displacement up to 100 μM | 7.1 | 13.1 | 8.5 | 8 | 47 | 6.2 | 4.5 | 3.5 | COc1cccc(C(=O)N2CCc3c([nH]c4ccccc34)C2)c1 [CA199] | 6.5 | 8.2 | blocks only at the G0/G1 phase |  |
|  |  |  |  |  |  |  |  |  |  |  |  |  | NC(=O)NO [Hydroxyurea, hydroxyurea, reference compound] |  |  |  | 77 |
